We go through 23 compounds from US9957263B2, “Bromodomain inhibitors” (AbbVie Inc., priority 2013, dated 2018).

In assay [1] the target is BRD4 (BDII_E352-M457) (Homo sapiens (Human), UniProt O60885). In words: TR-FRET bromodomain binding assay, BRD4 second bromodomain. As to conditions: His-tagged BD2, Alexa647-labeled probe 30 nM. The procedure, abridged: (§1)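 His-tagged bromodomain (8 nM) was incubated 1 h at room temperature with Eu-anti-His antibody (1 nM), Alexa647-labeled BET-inhibitor probe (100 nM for BDI, 30 nM for BDII) and compound (50 μM-0.85 nM, 2% DMSO) in pH 6.0 phosphate buffer. TR-FRET ratio read; IC50 from 4-parameter fit converted to Ki using probe Kd.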

Assay [2] has as its target BRD4 (BDI_K57-E168) (Homo sapiens (Human), UniProt O60885). In words: TR-FRET bromodomain binding assay, BRD4 first bromodomain. The note with it: His-tagged BD1, Alexa647-labeled probe 100 nM. The procedure, abridged: as §1

`Cn1cc(-c2cc(S(C)(=O)=O)ccc2Oc2cccc(C(=O)NCc3cc(F)cc(F)c3)c2)c2cc[nH]c2c1=O` [Example 36, N-(3,5-difluorobenzyl)-3-[2-(6-methyl-7-oxo-6,7-dihydro-1H-pyrrolo[2,3-c]pyridin-4-yl)-4-(methylsulfonyl)phenoxy]benzamide]: the Ki is 5.7 nM in assay [1] and 14 nM in assay [2].

With `CN(C)CCCOc1ccc(CNc2cccc(Oc3ccc(S(C)(=O)=O)cc3-c3cn(C)c(=O)c4[nH]ccc34)c2)cc1` [Example 74, 4-{2-[3-({4-[3-(dimethylamino)propoxy]benzyl}amino)phenoxy]-5-(methylsulfonyl)phenyl}-6-methyl-1,6-dihydro-7H-pyrrolo[2,3-c]pyridin-7-one], the Ki was 1.4 nM in assay [1] and 4.3 nM in assay [2].

As to `Cn1cc(-c2cc(S(C)(=O)=O)ccc2NC2CCN(C(=O)CN3CCCC3)CC2)c2cc[nH]c2c1=O` [Example 97, 6-methyl-4-[5-(methylsulfonyl)-2-{[1-(pyrrolidin-1-ylacetyl)piperidin-4-yl]amino}phenyl]-1,6-dihydro-7H-pyrrolo[2,3-c]pyridin-7-one], the Ki in assay [1] is 28 nM; in assay [2], 10 nM.

As to `Cc1cccc(C)c1Oc1ccc(S(C)(=O)=O)cc1-c1cn(C)c(=O)c2[nH]c(-c3nc(C4CC4)no3)cc12` [Example 135, 2-(3-cyclopropyl-1,2,4-oxadiazol-5-yl)-4-[2-(2,6-dimethylphenoxy)-5-(methylsulfonyl)phenyl]-6-methyl-1,6-dihydro-7H-pyrrolo[2,3-c]pyridin-7-one], the figures for the Ki in assay [1] and in assay [2] were 23.1 nM and 54.9 nM, respectively.

As to `COc1cccc(S(=O)(=O)Nc2cccc(Oc3ccc(S(C)(=O)=O)cc3-c3cn(C)c(=O)c4[nH]ccc34)c2)c1` [Example 42, 3-methoxy-N-{3-[2-(6-methyl-7-oxo-6,7-dihydro-1H-pyrrolo[2,3-c]pyridin-4-yl)-4-(methylsulfonyl)phenoxy]phenyl}benzenesulfonamide], the Ki in assay [1] came to 3.5 nM; in assay [2], 9.1 nM.

With `CN(CC#N)C(=O)c1cccc(Oc2ccc(S(C)(=O)=O)cc2-c2cn(C)c(=O)c3[nH]ccc23)c1` [Example 32, N-(cyanomethyl)-N-methyl-3-[2-(6-methyl-7-oxo-6,7-dihydro-1H-pyrrolo[2,3-c]pyridin-4-yl)-4-(methylsulfonyl)phenoxy]benzamide], the figures for the Ki in assay [1] and in assay [2] were 10 nM and 21 nM, respectively.

For `CCS(=O)(=O)Nc1cc(-c2cn(C)c(=O)c3[nH]ccc23)c(Oc2ccc(F)cc2F)cc1C(=O)O` [Example 11, 5-(2,4-difluorophenoxy)-2-[(ethylsulfonyl)amino]-4-(6-methyl-7-oxo-6,7-dihydro-1H-pyrrolo[2,3-c]pyridin-4-yl)benzoic acid], the Ki is 1 nM in assay [1] and 0.8 nM in assay [2].

On to `CN(C)CCCOc1ccc(CN2CCC(Nc3ccc(S(C)(=O)=O)cc3-c3cn(C)c(=O)c4[nH]ccc34)CC2)cc1` [Example 90, 4-{2-[(1-{4-[3-(dimethylamino)propoxy]benzyl}piperidin-4-yl)amino]-5-(methylsulfonyl)phenyl}-6-methyl-1,6-dihydro-7H-pyrrolo[2,3-c]pyridin-7-one], for which the inhibition constant (Ki) in assay [1] was found to be 25 nM; in assay [2], 14 nM.

Regarding `CSCCCN[C@H]1CC[C@H](Nc2ccc(S(C)(=O)=O)cc2-c2cn(C)c(=O)c3[nH]ccc23)CC1` [Example 112, 6-methyl-4-{2-[(trans-4-{[3-(methylsulfanyl)propyl]amino}cyclohexyl)amino]-5-(methylsulfonyl)phenyl}-1,6-dihydro-7H-pyrrolo[2,3-c]pyridin-7-one], the Ki in assay [1] worked out at 10 nM; in assay [2] it was 5.4 nM.

With `Cn1cc(-c2cc(S(C)(=O)=O)ccc2Oc2cccc(NCc3ccccc3C#N)c2)c2cc[nH]c2c1=O` [Example 71, 2-[({3-[2-(6-methyl-7-oxo-6,7-dihydro-1H-pyrrolo[2,3-c]pyridin-4-yl)-4-(methylsulfonyl)phenoxy]phenyl}amino)methyl]benzonitrile], the Ki in assay [1] was determined as 19 nM; in assay [2] it was 33 nM.

Regarding `CCS(=O)(=O)c1ccc(Oc2c(C)cccc2Cl)c(-c2cn(C)c(=O)c3[nH]c(C(=O)NCC(=O)NC)cc23)c1` [Example 124, 4-[2-(2-chloro-6-methylphenoxy)-5-(ethylsulfonyl)phenyl]-6-methyl-N-[2-(methylamino)-2-oxoethyl]-7-oxo-6,7-dihydro-1H-pyrrolo[2,3-c]pyridine-2-carboxamide], the Ki in assay [1] amounted to 10.1 nM; in assay [2], 88.3 nM.

Consider `Cn1cc(-c2cc(S(C)(=O)=O)ccc2NC2CCN(S(=O)(=O)c3cccs3)CC2)c2cc[nH]c2c1=O` [Example 106, 6-methyl-4-[5-(methylsulfonyl)-2-{[1-(thiophen-2-ylsulfonyl)piperidin-4-yl]amino}phenyl]-1,6-dihydro-7H-pyrrolo[2,3-c]pyridin-7-one], for which the values for the Ki in assay [1] and in assay [2] were 6.5 nM and 7.9 nM, respectively.

As for `CCS(=O)(=O)c1ccc(Oc2ccc(F)cc2F)c(-c2cn(C)c(=O)c3[nH]c(-c4cccnc4N4CCOCC4)cc23)c1` [Example 118, 4-[2-(2,4-difluorophenoxy)-5-(ethylsulfonyl)phenyl]-6-methyl-2-[2-(morpholin-4-yl)pyridin-3-yl]-1,6-dihydro-7H-pyrrolo[2,3-c]pyridin-7-one], the Ki in assay [1] came to 367 nM; in assay [2], 99.2 nM.

Take `CCS(=O)(=O)Nc1cc(-c2cn(C)c(=O)c3[nH]ccc23)c(Oc2ccc(F)cc2F)cc1C(=O)NC1CCCC1` [Example 9, N-cyclopentyl-5-(2,4-difluorophenoxy)-2-[(ethylsulfonyl)amino]-4-(6-methyl-7-oxo-6,7-dihydro-1H-pyrrolo[2,3-c]pyridin-4-yl)benzamide]: the Ki in assay [1] came to 2 nM; in assay [2] it was 1.7 nM.

Regarding `CCNC(=O)c1cc2c(-c3cc(S(=O)(=O)CC)ccc3Oc3c(C)cccc3CN3CCCS3(=O)=O)cn(C)c(=O)c2[nH]1` [Example 152, 4-[2-{2-[(1,1-dioxido-1,2-thiazolidin-2-yl)methyl]-6-methylphenoxy}-5-(ethylsulfonyl)phenyl]-N-ethyl-6-methyl-7-oxo-6,7-dihydro-1H-pyrrolo[2,3-c]pyridine-2-carboxamide], the inhibitory constant (Ki) in assay [1] was 36 nM; in assay [2], 2080 nM.

`CCNC(=O)c1cc2c(-c3cc(S(=O)(=O)CC)ccc3Oc3c(C)cccc3NCC3CCOC3)cn(C)c(=O)c2[nH]1` (stereo not shown) [Example 133, N-ethyl-4-[5-(ethylsulfonyl)-2-{2-methyl-6-[(tetrahydrofuran-3-ylmethyl)amino]phenoxy}phenyl]-6-methyl-7-oxo-6,7-dihydro-1H-pyrrolo[2,3-c]pyridine-2-carboxamide]: the Ki amounted to 20.3 nM in assay [1] and 2130 nM in assay [2].

Turning to `Cn1cc(-c2cc(S(C)(=O)=O)ccc2Oc2cccc(NS(=O)(=O)c3cccc(OC(F)F)c3)c2)c2cc[nH]c2c1=O` [Example 48, 3-(difluoromethoxy)-N-{3-[2-(6-methyl-7-oxo-6,7-dihydro-1H-pyrrolo[2,3-c]pyridin-4-yl)-4-(methylsulfonyl)phenoxy]phenyl}benzenesulfonamide], the Ki in assay [1] is 2.4 nM; in assay [2], 7.8 nM.

Take `CCS(=O)(=O)c1ccc(OCC2CC2(F)F)c(-c2cn(C)c(=O)c3[nH]c(C#CCN(C)C)cc23)c1` (stereo not shown) [Example 63, 4-{2-[(2,2-difluorocyclopropyl)methoxy]-5-(ethylsulfonyl)phenyl}-2-[3-(dimethylamino)prop-1-yn-1-yl]-6-methyl-1,6-dihydro-7H-pyrrolo[2,3-c]pyridin-7-one]: the values for the Ki in assay [1] and in assay [2] were 3.3 nM and 1.3 nM, respectively.

`CCS(=O)(=O)Nc1cc(-c2cn(C)c(=O)c3[nH]ccc23)c(Oc2ccc(F)cc2F)c(C2CC2)c1` [Example 15, N-[3-cyclopropyl-4-(2,4-difluorophenoxy)-5-(6-methyl-7-oxo-6,7-dihydro-1H-pyrrolo[2,3-c]pyridin-4-yl)phenyl]ethanesulfonamide]: the figures for the Ki in assay [1] and in assay [2] were 2.6 nM and 4.6 nM, respectively.

As to `Cn1cc(-c2cc(S(C)(=O)=O)ccc2Oc2cccc(C(=O)NCc3ccc(F)cc3F)c2)c2cc[nH]c2c1=O` [Example 37, N-(2,4-difluorobenzyl)-3-[2-(6-methyl-7-oxo-6,7-dihydro-1H-pyrrolo[2,3-c]pyridin-4-yl)-4-(methylsulfonyl)phenoxy]benzamide], the values for the Ki in assay [1] and in assay [2] were 6 nM and 18 nM, respectively.

With `CC(=O)N1CCN(C(=O)c2cccc(Oc3ccc(S(C)(=O)=O)cc3-c3cn(C)c(=O)c4[nH]ccc34)c2)CC1` [Example 30, 4-[2-{3-[(4-acetylpiperazin-1-yl)carbonyl]phenoxy}-5-(methylsulfonyl)phenyl]-6-methyl-1,6-dihydro-7H-pyrrolo[2,3-c]pyridin-7-one], the Ki in assay [1] is 17 nM; in assay [2] it was 28 nM.

On to `CN(C)CCN1CCN(C(=O)c2cccc(Oc3ccc(S(C)(=O)=O)cc3-c3cn(C)c(=O)c4[nH]ccc34)c2)CC1` [Example 29, 4-{2-[3-({4-[2-(dimethylamino)ethyl]piperazin-1-yl}carbonyl)phenoxy]-5-(methylsulfonyl)phenyl}-6-methyl-1,6-dihydro-7H-pyrrolo[2,3-c]pyridin-7-one], for which the Ki in assay [1] came out at 9.1 nM; in assay [2] it was 19 nM.

As to `CCS(=O)(=O)c1ccc(Oc2c(C)cccc2Cl)c(-c2cn(C)c(=O)c3[nH]c(C(=O)NCC(=O)N4CCCCC4)cc23)c1` [Example 122, 4-[2-(2-chloro-6-methylphenoxy)-5-(ethylsulfonyl)phenyl]-6-methyl-7-oxo-N-[2-oxo-2-(piperidin-1-yl)ethyl]-6,7-dihydro-1H-pyrrolo[2,3-c]pyridine-2-carboxamide], the inhibition constant Ki in assay [1] was 7.58 nM; in assay [2], 39.1 nM.
